Assay results published in patent US4379091A, “Esters of arylpropionic acids endowed with an anti-inflammatory activity” (priority 1980, dated 1983).

Assays:
[1] = tested on: squirmings (acetylcholine); assay: acetylcholine test: squirmings induced by acetylcholine; assay type: in vivo, mouse; settings: oral, one hour before acetylcholine, equimolar doses; 4 minutes observation
Procedure: Squirmings were induced by an intraperitoneal injection of acetylcholine ([…]; 0.5 ml per mouse); both compounds were given orally one hour before the administration of acetylcholine at the dose of 10 mg/kg, in equimolar doses. […] The results reported below were obtained in comparison with the control group: […]

carrageenin edema [2] = assay: carrageenin edema test in the rat (percent protection); assay type: in vivo, rat (Wistar); settings: oral, ibuprofen 100 mg/kg, MR-653 200 mg/kg (equimolar)
carrageenin edema [3] = assay: as above; assay type: in vivo, rat (Wistar); settings: for peak of activity (time) / time course of activity after the peak: carrageenin edema; for peak of activity (time) / time course of activity after the peak / Percent protection from the carrageenin edema: oral; for Percent protection from the carrageenin edema: detection after 4 hours, ibuprofen 100 mg/kg, MR-653 200 mg/kg (equimolar)
Procedure: 1 percent carrageenin in saline was given, at the rate of 0.1 ml subcutaneously, into the plantar area of the left paw.
The compounds were administered 1, 3 and 6 hours respectively before the carrageenin injection; the related values were always read 4 hours after the carrageenin injection, duly assessing the percent swelling of the paw versus the value at the time 0 (carrageenin inocula). The results are expressed as percent protection considering the swelling in the control group as equal to 100.

[4] = plasma kinetics of ibuprofen and MR-653 in the male rat
From the text: The investigational drugs were given by oral gavage, suspended in 0.5 percent gum arabic; an analogous suspension was used in the case of the intraperitoneal administration.

[5] = tested on: abdominal squirmings (phenylquinone); assay: analgesic activity: abdominal squirmings induced by phenylquinone; assay type: in vivo; settings: oral, 100 mg/kg (equimolar doses), one hour before; 20 minutes observation
Procedure: Abdominal squirmings were induced by an intraperitoneal injection in saline, given at the dose of 4 mg/kg/20 ml.

gastric mucosa = assay: gastric injuring effects; assay type: in vivo, Wistar rats
Procedure: The compounds were given intraperitoneally at the equimolar dose of 500 mg/kg. The animals were killed 5 hours after the treatment in order to assess the conditions of the gastric mucosa, and the possible presence of bleedings and ulcers.

mouse = assay: acute toxicity, oral LD 50 in the mouse; assay type: in vivo; settings: versus the corresponding acid (ibuprofen for MR-653)
[6] = acute toxicity, oral LD 50 in the mouse; assay type: in vivo; settings: in vivo; mouse, oral
solubility = assay type: physicochemical
[7] = intraperitoneal, equimolar dose of 500 mg/kg, 5 hours after treatment

Row | Structure (SMILES) | protection versus control group (acetylcholine squirming) [1] | Percent protection from the carrageenin edema (carrageenin edema [2]; detection after 1 hour) | Percent protection from the carrageenin edema (carrageenin edema [2]; detection after 2 hours) | Percent protection from the carrageenin edema (carrageenin edema [2]; detection after 3 hours) | Percent protection from the carrageenin edema (carrageenin edema [2]; detection after 6 hours) | peak of activity (time) (carrageenin edema [3]; equimolar doses) | time course of activity after the peak (carrageenin edema [3]; equimolar doses) | Percent protection from the carrageenin edema (carrageenin edema [3]) | protection versus the control group (phenylquinone squirming) [5] | incidence of punctiform ulcer (gastric mucosa; [7]) | other results
1 | CC(C)Cc1ccc(C(C)C(=O)O)cc1 (stereo not drawn) [Ibuprofen, 2-(4-isobutyl-phenyl) propionic acid] | 50% | 60% | 44% | 28% | 20% | around the first hour | rapid and progressive decrease even starting from the second hour | 24% | 20% | 14% | time of peak of the plasma levels of ibuprofen ([4]; plasma kinetics, oral): at the first hour; AUC at 7 h ([4]; rat, in vivo, ip, 58.8 mg/kg): ~325 µg·h/mL; concentration at 0.5 h ([4]; rat, in vivo, ip, 58.8 mg/kg): 215 ± 33.4 µg/mL; concentration at 1 h ([4]; rat, in vivo, ip, 58.8 mg/kg): 105 ± 12.4 µg/mL; concentration at 2 h ([4]; rat, in vivo, ip, 58.8 mg/kg): 18.3 ± 11 µg/mL; concentration at 7 h ([4]; rat, in vivo, ip, 58.8 mg/kg): 6.2 ± 2.4 µg/mL; AUC at 7 h ([4]; rat, in vivo, po, 58.8 mg/kg): ~190 µg·h/mL; concentration at 1 h ([4]; rat, in vivo, po, 58.8 mg/kg): 71.7 ± 23.6 µg/mL; concentration at 2 h ([4]; rat, in vivo, po, 58.8 mg/kg): 32.2 ± 7.7 µg/mL; concentration at 5 h ([4]; rat, in vivo, po, 58.8 mg/kg): 12.1 ± 22 µg/mL; concentration at 7 h ([4]; rat, in vivo, po, 58.8 mg/kg): 9.1 ± 1.5 µg/mL; condition of stomach / peritoneum (gastric mucosa; rat, in vivo, ip, 500 mg/kg): almost normal mucosa with a fair quantity of a yellowish foamy secretion
2 | CC(C)Cc1ccc(C(C)C(=O)OCCOCCOCCOCCO)cc1 (stereo not drawn) [MR-653, Monoester of 2-(4-isobutyl-phenyl)propionic acid with tetraethylene glycol] | 48% | 64% | 59% | 47% | 34% | around the first hour | markedly slower | 44% | 20% | 16% | toxicity compared with the corresponding acid (mouse): practically unchanged values of toxicity and gastric injuring effects; LD50 [6]: > 2000 mg/kg; anti-inflammatory activity higher than that of ibuprofen until the 6th hour (carrageenin edema [3]; equimolar doses, versus ibuprofen): 48%; solubility in organic solvents (solubility; methanol, diethyl ether, acetone and chloroform): soluble on the other hand in methanol, diethyl ether, acetone and chloroform; solubility in water (solubility; water): practically insoluble in water; condition of stomach / peritoneum (gastric mucosa; [7]): mildly hyperemic peritoneal exudate; gastric injuring effects compared with the corresponding acid (gastric mucosa; versus the corresponding acid (ibuprofen for MR-653)): practically unchanged values of toxicity and gastric injuring effects
